Common to all, as to type: cell-based
The target in data set [1] is T1, hGAT2 (Homo sapiens, UniProt Q9NSD5).
T1 construct: expressed in transfected cells
T1 sequence (Q9NSD5 1-602): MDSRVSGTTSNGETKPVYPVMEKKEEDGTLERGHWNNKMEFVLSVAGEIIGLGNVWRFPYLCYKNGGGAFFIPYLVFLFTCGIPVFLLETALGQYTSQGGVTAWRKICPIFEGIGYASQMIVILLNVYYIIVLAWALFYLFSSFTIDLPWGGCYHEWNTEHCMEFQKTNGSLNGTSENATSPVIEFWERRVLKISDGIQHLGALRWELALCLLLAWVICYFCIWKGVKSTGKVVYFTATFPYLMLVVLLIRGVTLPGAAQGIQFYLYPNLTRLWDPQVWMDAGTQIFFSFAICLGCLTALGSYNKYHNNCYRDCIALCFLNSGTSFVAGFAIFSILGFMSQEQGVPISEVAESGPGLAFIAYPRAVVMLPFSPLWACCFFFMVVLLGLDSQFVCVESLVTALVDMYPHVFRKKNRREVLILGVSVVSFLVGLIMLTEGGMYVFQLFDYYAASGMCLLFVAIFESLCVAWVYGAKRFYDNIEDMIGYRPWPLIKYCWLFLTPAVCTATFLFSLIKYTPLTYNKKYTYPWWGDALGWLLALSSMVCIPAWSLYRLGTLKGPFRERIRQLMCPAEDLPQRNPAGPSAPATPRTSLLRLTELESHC
The experiment in a line: [3H]GABA uptake assay, CHO cells stably expressing hGAT2.

In data set [2] the target is T2, hBGT1 E52A+Q299L (Homo sapiens, UniProt P48065, E52A/Q299L).
T2 construct: host or cells: tsA201 cells (transformed HEK293), transient expression
T2 sequence (P48065 1-614 E52A/Q299L): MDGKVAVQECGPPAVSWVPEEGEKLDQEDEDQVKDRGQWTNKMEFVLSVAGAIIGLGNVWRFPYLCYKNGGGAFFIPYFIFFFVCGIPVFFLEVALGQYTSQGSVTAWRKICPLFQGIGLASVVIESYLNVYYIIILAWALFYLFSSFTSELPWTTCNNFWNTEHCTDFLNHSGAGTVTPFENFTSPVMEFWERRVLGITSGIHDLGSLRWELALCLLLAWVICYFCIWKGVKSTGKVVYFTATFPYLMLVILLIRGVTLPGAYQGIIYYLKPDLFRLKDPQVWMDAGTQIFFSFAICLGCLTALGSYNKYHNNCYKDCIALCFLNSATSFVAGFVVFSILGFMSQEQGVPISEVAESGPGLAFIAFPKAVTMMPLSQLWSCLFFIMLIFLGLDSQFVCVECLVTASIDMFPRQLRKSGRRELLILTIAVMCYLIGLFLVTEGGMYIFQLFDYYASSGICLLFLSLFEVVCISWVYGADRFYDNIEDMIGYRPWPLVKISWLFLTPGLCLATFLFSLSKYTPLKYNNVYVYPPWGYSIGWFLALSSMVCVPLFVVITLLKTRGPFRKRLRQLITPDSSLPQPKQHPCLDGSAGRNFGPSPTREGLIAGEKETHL
The experiment in a line: [3H]GABA uptake assay, hBGT1 double mutant E52A+Q299L in tsA201 cells. The protocol: To validate the molecular modeling, particularly the crucial interactions with the Glu52 and Gln299 residues, the activity of compound 9 was tested on the following hBGT1 mutants: E52A, E52Y, Q299L, and the double mutant E52A+Q299L (Figure 5 and Table 1).[14]
The CHO cells were placed in 96-well plates (approximately 50,000 cells/well) for about 24 h before the experiment. […] After incubation, cells were washed 3 times with 100 μL/well ice-cold assay buffer, 150 μL/well MicroScint20 (PerkinElmer) was subsequently added before the plate was shaken for at least 1 h. The radioactivity of each well of the plate was measured on a TopCount NXT scintillation counter. […] Data presented are the pooled data of at least three independent experiments with three technical replicates if not stated otherwise in figure legends. Concentration–response curves were fitted by nonlinear regression to the sigmoidal concentration–response model with GraphPad Prism v 9.0.
The tsA201 cell line (a transformed HEK293 cell line) has been described previously and was cultured accordingly.[20] The tsA201 cells used for transient expression of hBGT1 mutants were transfected with DNA constructs (8 μg per 10 cm plate) using 40 μL of PolyFect transfection reagent according to the manufacturer’s protocol (Qiagen). […]

Data set [3] concerns normal human astrocytes (NHA). In words: Phase-contrast microscopy of normal human astrocytes in culture medium. Particulars: 500 μM in culture medium; 72 h. The protocol: Taking into account the presence of BGT1 and GAT3 transporters in astrocytes, we studied the effect of compound 9 on astrocyte viability, proliferation, and homeostasis. Normal human astrocytes (NHA) were treated with 1–100 μM compound 9 in a culture medium. The WST-1 assay was used to determine the number of metabolically active cells after 24 and 48 h of incubation. […] In the next step, a higher concentration (500 μM) of the compound and a longer incubation time (72 h) were applied, and the cells were examined by phase-contrast microscopy. […] Considering the results shown in Figure 6, compound 9 was not cytotoxic toward human astrocytes under in vitro culture conditions.
Gibco Human Astrocytes (Thermo Fisher Scientific) were maintained in a humidified 5% CO2 incubator at 37 °C. The cells were cultured in Gibco Astrocyte Medium (DMEM with GlutaMAX, N-2 Supplement, and OneShot Fetal Bovine Serum) supplemented with penicillin G (100 U/mL), neomycin (10 μg/mL), and amphotericin B (0.25 μg/mL).

SMILES strings stand for the structures.

For `NC12CC(C(=O)O)(C1)C2` [Compound 9], the half-inhibitory concentration (IC50) in data set [1] was above 100 µM; in data set [2], above 1000 µM. Further, in data set [1] (CHO, read-out: inhibition of GABA uptake), the inhibition at 100 µM was around 25%. Also, the “activity at mutant compared with wild type hBGT1” value in data set [2] (E52A+Q299L vs wt) was “no activity”. The “astrocyte morphology and confluency” value in data set [3] is “no changes in astrocyte morphology and confluency”.

A word on the IC50: it is the concentration that inhibits the measured activity by half. A high value points to weaker potency. As a reminder, the inhibition is the drop in the measured response relative to a control, in per cent.

Values taken from paper PMC11587516 (ACS Chemical Neuroscience, 2024).
